{
  "source": "patent US6706291B1",
  "about": "“Poultry producibility improver and poultry producibility improvement method” (Taiyo Kagaku Co., Ltd., priority 2001, dated 2004)",
  "key": {"[1]": {"tested_on": "White Cornish edible chickens", "assay": "Test Example 3: K value, TBA value, POV value of chicken meat after storage", "type": "in vivo", "conditions": "for K Value of Chicken Meat after 10 Days of Storage: storage at 4° C.", "excerpt": "In the present invention, the expression “keeping freshness of chicken meat” refers to suppression of an increase during storage in a numerical value, such as K value (ratio of inosine and hypoxanthine content to the sum of ATP, ADP, AMP, IMP, inosine and hypoxanthine contents in chicken meat as expressed in percentage), VBN value (a total amount of volatile basic substances, such as ammonia and trimethylamine, in chicken meat), TMA value (trimethylamine content in chicken meat) and polyamine content (total amount of decarboxylated products of free amino acids, such as putrescine, cadaverine, agmatine, histamine, tyramine, tryptamine and spermidine, in chicken meat), metmyoglobin formation ratio (ratio of myoglobin oxidized to metmyoglobin in muscular tissue of chicken meat), TBA value (ratio of fatty acids oxidized to fatty acids in chicken meat), POV value (peroxide value: ratio of oil or fat oxidized in chicken meat), and bacterial cell count (number of bacterial cells in chicken meat). In the present invention, it is preferable that at least one selected from the group consisting of K value, TBA value and POV value is used as an index for keeping freshness of chicken meat. Because the K value is most generally used as an index for freshness, it is more preferable to use the K value as an index for keeping freshness of chicken meat. White Cornish edible chickens were bred for 7 weeks from newly-hatched chickens. The hatched chickens were divided into 17 groups, the groups AA to QQ of 200 chickens per group. […] The edible chickens were fed with a commercially available formula feed for edible chickens, and allowed to take feed and water ad libitum. […] The liveability is shown in Table 17 and the weekly body weight gain in Table 18, respectively. […] Furthermore, changes in the TBA value and in the POV value of each of the breast meat, the leg meat and the chicken fat after storage were determined in the same manner. The cholesterol content is shown in Table 19, the change in the K value after storage in Table 20, the change in the TBA value after storage in Table 21, and the change in the POV value after storage in Table 22, respectively."}, "[2]": {"tested_on": "eggs of White Leghorn laying hens", "assay": "Test Example 1: Haugh unit and vitamin E content of eggs during storage", "type": "in vivo, chicken", "conditions": "for Haugh Unit / Vitamin E Content: eggs collected after 4 months", "description": "Here, the term “Haugh unit” mentioned above refers to an index showing an extent of deterioration of thick albumen and is defined as the numeral calculated using the equation: […]\nwherein H is a height (mm) of thick albumen; and W is an egg weight (g).\nFurthermore, after 4 months from initiation of the test, 20 eggs each were collected from each poultry house. Haugh unit and vitamin E content were determined on the day of collection for 10 of the eggs, and after 2 weeks of storage at 4° C. for the remaining 10 eggs, respectively."}, "[3]": {"tested_on": "White Cornish edible chickens", "assay": "Test Example 3: liveability and weekly body weight gain of edible chickens", "type": "in vivo, chicken", "excerpt": "(§1) White Cornish edible chickens were bred for 7 weeks from newly-hatched chickens. The hatched chickens were divided into 17 groups, the groups AA to QQ of 200 chickens per group. […] The edible chickens were fed with a commercially available formula feed for edible chickens, and allowed to take feed and water ad libitum. […] The liveability is shown in Table 17 and the weekly body weight gain in Table 18, respectively. […] Furthermore, changes in the TBA value and in the POV value of each of the breast meat, the leg meat and the chicken fat after storage were determined in the same manner. The cholesterol content is shown in Table 19, the change in the K value after storage in Table 20, the change in the TBA value after storage in Table 21, and the change in the POV value after storage in Table 22, respectively."}, "[4]": {"tested_on": "eggs of Isabrown laying hens", "assay": "Test Example 2: DHA, EPA, vitamin E content and Haugh unit of eggs during storage", "type": "in vivo, chicken", "conditions": "for EPA Content / Haugh Unit / Vitamin E Content / DHA Content: eggs after 4 months; for DHA Content: feed with fish oil and vitamin E", "description": "Isabrown laying hens were bred in poultry houses of the windless vertical 2-shelf cage type. Seventeen poultry houses a to q (10,000 hens/poultry house) were set, and a field test concerning suppression of a decrease in highly unsaturated fatty acid content during storage of eggs laid by laying hens was carried out. […] In addition, the laying hens were fed with a feed prepared by adding 2 kg of a fish oil and 10 g of vitamin E to 100 kg of a cormnercially available feed for laying hens. In addition, the laying hens were allowed to take water ad libitum.\nAfter 4 months from initiation of the test, 20 eggs each were collected from each poultry house. DHA content and EPA content of the eggs, as indices for highly unsaturated fatty acid, were determined on the day of collection for 10 of the eggs, and after 2 weeks of storage at 4° C. for the remaining 10 eggs, respectively. Vitamin E content and Haugh unit were also determined. A change in the DHA content, a change in the EPA content, a change in the vitamin E content, and a change in the Haugh unit are shown in Tables 12, 13, 14 and 15, respectively."}, "[5]": {"tested_on": "White Cornish edible chickens", "assay": "Test Example 3: cholesterol content of breast meat, leg meat and chicken fat", "type": "in vivo", "excerpt": "as §1"}, "[6]": {"tested_on": "White Leghorn laying hens", "assay": "Test Example 1: field test on producibility of laying hens (liveability, egg production indices)", "type": "in vivo, chicken", "conditions": "for Liveability: additive in feed entire breeding period; for Number of Eggs Produced / Weight of Produced Eggs: 30,000 hens/poultry house", "description": "White Leghorn laying hens at 121 days of age were housed in poultry houses of the windless vertical 6-shelf cage type and bred therein for 1 year. Eighteen poultry houses A to R (30,000 hens/poultry house) were set, and a field test concerning improvement in producibility by laying hens was carried out.\nThe laying hens were fed with a commercially available formula feed for laying hens, and allowed to take water ad libitum.\nAs indices for the producibility, there were obtained a liveability, a rate of laying, each egg weight and a weight of eggs produced per day, each item being at 4 months after initiation of the test, and a total number of eggs produced and a total egg weight during the 4-month period from initiation of the test. The same items were also determined at 8 and 12 months after initiation of the test. […] In the following tables, the indications “4M, 8M, 12M” stand for 4 months, 8 months, and 12 months after initiation of the test, respectively."}, "[7]": {"conditions": "After 2 Weeks of Storage at 4° C."}, "[8]": {"conditions": "Immediately After Egg Production"}},
  "data": [
    {"substance": "(−)-epigallocatechin gallate", "values": [
      {"measurement": "Change in POV Value after 10 Days Storage", "setting": "[1]; Breast Meat", "value": 1.52},
      {"measurement": "Change in TBA Value after 10 Days Storage", "setting": "[1]; Breast Meat", "value": 0.44},
      {"measurement": "K Value of Chicken Meat after 10 Days of Storage", "setting": "[1]; Breast Meat", "value": 55.3},
      {"measurement": "Change in POV Value after 10 Days Storage", "setting": "[1]; Chicken Fat", "value": 1.80},
      {"measurement": "Change in TBA Value after 10 Days Storage", "setting": "[1]; Chicken Fat", "value": 0.42},
      {"measurement": "Change in POV Value after 10 Days Storage", "setting": "[1]; Leg Meat", "value": 1.53},
      {"measurement": "Change in TBA Value after 10 Days Storage", "setting": "[1]; Leg Meat", "value": 0.40},
      {"measurement": "K Value of Chicken Meat after 10 Days of Storage", "setting": "[1]; Leg Meat", "value": 55.4},
      {"measurement": "Effect on decrease in Haugh unit and vitamin E content during egg storage, in words", "setting": "[2]; 2 weeks of storage at 4° C.", "value": "no effect was found"},
      {"measurement": "Haugh Unit", "setting": "[2]; [7]", "value": 79.9},
      {"measurement": "Vitamin E Content", "setting": "[2]; [7]", "value": "2.0 mg based on 100 g of egg yolk solution"},
      {"measurement": "Haugh Unit", "setting": "[2]; [8]", "value": 98.0},
      {"measurement": "Vitamin E Content", "setting": "[2]; [8]", "value": "3.1 mg based on 100 g of egg yolk solution"},
      {"measurement": "Weekly Body Weight Gain", "setting": "[3]; after breeding for 7 weeks", "value": 462.5, "unit": "g"},
      {"measurement": "Liveability", "setting": "[3]; after breeding for 7 weeks, 200 chickens per group", "value": 96.33, "unit": "%"},
      {"measurement": "Effect on liveability, weekly body weight gain, cholesterol content, K, TBA and POV values, in words", "setting": "[3]; all indices of Test Example 3", "value": "no effect was found"},
      {"measurement": "Effect on decrease in DHA, EPA, vitamin E content and Haugh unit during egg storage, in words", "setting": "[4]; 2 weeks of storage at 4° C.", "value": "no effect was found"},
      {"measurement": "EPA Content", "setting": "[4]; [7]", "value": "84.0 mg based on 100 g of egg yolk solution"},
      {"measurement": "Haugh Unit", "setting": "[4]; [7]", "value": 80.9},
      {"measurement": "Vitamin E Content", "setting": "[4]; [7]", "value": "1.7 mg based on 100 g of egg yolk solution"},
      {"measurement": "EPA Content", "setting": "[4]; [8]", "value": "103.8 mg based on 100 g of egg yolk solution"},
      {"measurement": "Haugh Unit", "setting": "[4]; [8]", "value": 96.5},
      {"measurement": "Vitamin E Content", "setting": "[4]; [8]", "value": "3.0 mg based on 100 g of egg yolk solution"},
      {"measurement": "DHA Content", "setting": "[4]; [7]", "value": "1,344.0 mg based on 100 g of egg yolk solution"},
      {"measurement": "DHA Content", "setting": "[4]; [8]", "value": "1,493.1 mg based on 100 g of egg yolk solution"},
      {"measurement": "Cholesterol Content", "setting": "[5]; Breast Meat", "value": "72.0 mg based on 100 g of chicken meat or chicken fat"},
      {"measurement": "Cholesterol Content", "setting": "[5]; Chicken Fat", "value": "227.6 mg based on 100 g of chicken meat or chicken fat"},
      {"measurement": "Cholesterol Content", "setting": "[5]; Leg Meat", "value": "86.0 mg based on 100 g of chicken meat or chicken fat"},
      {"measurement": "Each Egg Weight", "setting": "[6]; 4M after initiation of test", "value": 58.6, "unit": "g"},
      {"measurement": "Rate of Egg Production", "setting": "[6]; 4M after initiation of test", "value": 92.3, "unit": "%"},
      {"measurement": "Weight of Eggs Produced Per Day", "setting": "[6]; 4M after initiation of test", "value": 53.97, "unit": "g"},
      {"measurement": "Liveability", "setting": "[6]; 4M after initiation of test", "value": 98.90, "unit": "%"},
      {"measurement": "Number of Eggs Produced", "setting": "[6]; 4M", "value": "295,589 ct"},
      {"measurement": "Weight of Produced Eggs", "setting": "[6]; 4M", "value": "17,321.5 kg"},
      {"measurement": "Each Egg Weight", "setting": "[6]; 8M after initiation of test", "value": 61.7, "unit": "g"},
      {"measurement": "Rate of Egg Production", "setting": "[6]; 8M after initiation of test", "value": 82.9, "unit": "%"},
      {"measurement": "Weight of Eggs Produced Per Day", "setting": "[6]; 8M after initiation of test", "value": 51.05, "unit": "g"},
      {"measurement": "Liveability", "setting": "[6]; 8M after initiation of test", "value": 97.81, "unit": "%"},
      {"measurement": "Number of Eggs Produced", "setting": "[6]; 8M", "value": "714,941 ct"},
      {"measurement": "Weight of Produced Eggs", "setting": "[6]; 8M", "value": "44,111.9 kg"},
      {"measurement": "Each Egg Weight", "setting": "[6]; 12M after initiation of test", "value": 63.1, "unit": "g"},
      {"measurement": "Rate of Egg Production", "setting": "[6]; 12M after initiation of test", "value": 72.9, "unit": "%"},
      {"measurement": "Weight of Eggs Produced Per Day", "setting": "[6]; 12M after initiation of test", "value": 47.68, "unit": "g"},
      {"measurement": "Liveability", "setting": "[6]; 12M after initiation of test", "value": 95.02, "unit": "%"},
      {"measurement": "Number of Eggs Produced", "setting": "[6]; 12M", "value": "1,054,111 ct"},
      {"measurement": "Weight of Produced Eggs", "setting": "[6]; 12M", "value": "66,514.4 kg"},
      {"measurement": "Effect on producibility indices (liveability, rate of egg production, egg weight, eggs produced), in words", "setting": "[6]; compared with poultry house Q given only an ordinary feed / houses H to R", "value": "an effect of addition of these additives was not found"}
    ]}
  ]
}
